Results published in patent US10556905B2, “Processes for preparing a diazabicyclooctane compound” (priority 2012, dated 2020).
Where two headings read alike, the source gives them in different places.

Columns and labels:
AmpC = biological target: T1, AmpC (Pseudomonas aeruginosa, UniProt P24735); experiment: biochemical
T1 construct: AmpC, TEM-1, KPC-2 or OXA-2 domain excluding signal peptide was amplified with PCR; made in house; host or cells: Escherichia coli BL21 (DE3), pET-28b(+)

TEM-1 = biological target: T2, TEM-1 (Escherichia coli, UniProt P62593); experiment: β-Lactamase inhibitory activity (nitrocefin hydrolysis), TEM-1; type: biochemical; conditions: TEM-1 0.1 nM, 100 μM nitrocefin, pre-incubation 30° C. 10 minutes
T2 construct: AmpC, TEM-1, KPC-2 or OXA-2 domain excluding signal peptide was amplified with PCR; made in house; host or cells: Escherichia coli BL21 (DE3), pET-28b(+)
How it was run: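 Recombinant TEM-1 (signal peptide removed), expressed in E. coli BL21(DE3), hydrolysing 100 μM nitrocefin (final) in 50 mM phosphate pH 7.0 with 2.5% DMSO and 10 μg/mL BSA. Incubated 20 min at 30° C; A492 read. Potency given as bands A (<0.1 μM) to E (≥10 μM).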

KPC-2 = biological target: T3, KPC-2 (Klebsiella pneumoniae, UniProt Q9F663); experiment: β-Lactamase inhibitory activity (nitrocefin hydrolysis), KPC-2; type: biochemical; conditions: KPC-2 0.5 nM, 100 μM nitrocefin, pre-incubation 30° C. 10 minutes
T3 construct: AmpC, TEM-1, KPC-2 or OXA-2 domain excluding signal peptide was amplified with PCR; made in house; host or cells: Escherichia coli BL21 (DE3), pET-28b(+)

OXA-2 = biological target: T4, OXA-2 (Escherichia coli, UniProt P0A1V9); experiment: biochemical; design: species or system P. aeruginosa
T4 construct: AmpC, TEM-1, KPC-2 or OXA-2 domain excluding signal peptide was amplified with PCR; made in house; host or cells: Escherichia coli BL21 (DE3), pET-28b(+)

[1] = OXA-2 2 nM, 100 μM nitrocefin, pre-incubation 30° C. 10 minutes, read-out: β-Lactamase inhibitory activity OXA-2 (IC50)

T2 sequence (P62593 24-286 limits assumed): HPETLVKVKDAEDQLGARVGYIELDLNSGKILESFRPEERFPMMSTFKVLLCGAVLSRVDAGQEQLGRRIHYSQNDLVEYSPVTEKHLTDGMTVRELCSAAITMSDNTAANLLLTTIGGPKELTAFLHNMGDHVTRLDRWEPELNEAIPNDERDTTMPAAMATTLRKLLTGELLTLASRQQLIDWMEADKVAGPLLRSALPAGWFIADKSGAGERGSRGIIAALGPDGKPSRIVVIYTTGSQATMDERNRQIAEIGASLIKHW
T4 sequence (P0A1V9 22-275): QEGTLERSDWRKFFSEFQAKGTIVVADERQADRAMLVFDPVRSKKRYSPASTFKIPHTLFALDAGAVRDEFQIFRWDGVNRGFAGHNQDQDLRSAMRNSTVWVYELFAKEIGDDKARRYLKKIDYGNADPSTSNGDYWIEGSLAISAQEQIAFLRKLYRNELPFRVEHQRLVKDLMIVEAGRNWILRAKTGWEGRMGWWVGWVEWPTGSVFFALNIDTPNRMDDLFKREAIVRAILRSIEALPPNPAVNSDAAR
T3 sequence (Q9F663 25-293, looked up): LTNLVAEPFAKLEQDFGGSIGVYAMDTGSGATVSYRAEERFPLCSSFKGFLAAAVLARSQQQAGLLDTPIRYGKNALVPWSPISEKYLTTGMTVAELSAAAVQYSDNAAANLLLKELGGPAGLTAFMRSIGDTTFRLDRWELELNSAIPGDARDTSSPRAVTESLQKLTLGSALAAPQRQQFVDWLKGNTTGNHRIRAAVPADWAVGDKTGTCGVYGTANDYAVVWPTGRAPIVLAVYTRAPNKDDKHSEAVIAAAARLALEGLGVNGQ
T1 sequence (P24735 27-397): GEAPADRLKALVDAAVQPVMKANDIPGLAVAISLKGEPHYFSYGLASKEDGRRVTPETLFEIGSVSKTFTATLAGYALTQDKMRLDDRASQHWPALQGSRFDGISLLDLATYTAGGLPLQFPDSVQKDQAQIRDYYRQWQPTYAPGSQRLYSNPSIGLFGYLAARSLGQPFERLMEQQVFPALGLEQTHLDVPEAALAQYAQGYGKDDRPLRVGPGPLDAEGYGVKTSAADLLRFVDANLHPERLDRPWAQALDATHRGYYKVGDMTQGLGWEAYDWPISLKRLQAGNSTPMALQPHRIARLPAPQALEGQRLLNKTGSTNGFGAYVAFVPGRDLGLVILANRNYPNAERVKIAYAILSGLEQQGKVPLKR

CONC(=O)[C@@H]1CC[C@@H]2CN1C(=O)N2OS(=O)(=O)O [Example 56, Sodium (2S,5R)—N-methoxy-7-oxo-6-(sulfooxy)-1,6-diazabicyclo[3.2.1]octane-2-carboxamide]
IC50 (AmpC): 100 to 1000 nM | IC50 (TEM-1): < 100 nM | IC50 (KPC-2): 100 to 1000 nM | IC50 (OXA-2): 1000 to 3000 nM

O=C(NOCC1CCC1)[C@@H]1CC[C@@H]2CN1C(=O)N2OS(=O)(=O)O [Example 58, Sodium (2S,5R)—N-(cyclobutylmethoxy)-7-oxo-6-(sulfooxy)-1,6-diazabicyclo[3.2.1]octane-2-carboxamide]
IC50 (AmpC): < 100 nM | IC50 (TEM-1): < 100 nM | IC50 (KPC-2): < 100 nM | IC50 (OXA-2): 100 to 1000 nM

CC(C)(C)OC(=O)NCCONC(=O)[C@@H]1CC[C@@H]2CN1C(=O)N2OS(=O)(=O)O [Example 60, Sodium tert-butyl {2-[({[(2S,5R)-7-oxo-6-(sulfooxy)-1,6-diazabicyclo[3.2.1]oct-2-yl]carbonyl}amino)oxy]ethyl}carbamate]
IC50 (AmpC): 100 to 1000 nM | IC50 (TEM-1): < 100 nM | IC50 (KPC-2): 100 to 1000 nM | IC50 (OXA-2): 100 to 1000 nM

CNCCONC(=O)[C@@H]1CC[C@@H]2CN1C(=O)N2OS(=O)(=O)O [Example 61, (2S,5R)—N-[2-(Methylamino)ethoxy]-7-oxo-6-(sulfooxy)-1,6-diazabicyclo[3.2.1]octane-2-carboxamide]
IC50 (AmpC): 100 to 1000 nM | IC50 (TEM-1): < 100 nM | IC50 (KPC-2): 1000 to 3000 nM | IC50 (OXA-2; [1]): 1000 to 3000 nM

CCNCCONC(=O)[C@@H]1CC[C@@H]2CN1C(=O)N2OS(=O)(=O)O [Example 62, (2S,5R)—N-[2-(Ethylamino)ethoxy]-7-oxo-6-(sulfooxy)-1,6-diazabicyclo[3.2.1]octane-2-carboxamide]
IC50 (AmpC): 100 to 1000 nM | IC50 (TEM-1): < 100 nM | IC50 (KPC-2): 100 to 1000 nM | IC50 (OXA-2; [1]): 1000 to 3000 nM

CCCNCCONC(=O)[C@@H]1CC[C@@H]2CN1C(=O)N2OS(=O)(=O)O [Example 63, (2S,5R)-7-Oxo-N-[2-(propylamino)ethoxy]-6-(sulfooxy)-1,6-diazabicyclo[3.2.1]octane-2-carboxamide]
IC50 (AmpC): 100 to 1000 nM | IC50 (TEM-1): < 100 nM | IC50 (KPC-2): 100 to 1000 nM | IC50 (OXA-2; [1]): 1000 to 3000 nM

CC(C)NCCONC(=O)[C@@H]1CC[C@@H]2CN1C(=O)N2OS(=O)(=O)O [Example 64, (2S,5R)-7-Oxo-N-[2-(propan-2-ylamino)ethoxy]-6-(sulfooxy)-1,6-diazabicyclo[3.2.1]octane-2-carboxamide]
IC50 (AmpC): 100 to 1000 nM | IC50 (TEM-1): < 100 nM | IC50 (KPC-2): 100 to 1000 nM | IC50 (OXA-2; [1]): 1000 to 3000 nM

CN(C)CCONC(=O)[C@@H]1CC[C@@H]2CN1C(=O)N2OS(=O)(=O)O [Example 65, (2S,5R)—N-[2-(Dimethylamino)ethoxy]-7-oxo-6-(sulfooxy)-1,6-diazabicyclo[3.2.1]octane-2-carboxamide]
IC50 (AmpC): 100 to 1000 nM | IC50 (TEM-1): 100 to 1000 nM | IC50 (KPC-2): 1000 to 3000 nM | IC50 (OXA-2; [1]): 1000 to 3000 nM

C[C@H](N)CONC(=O)[C@@H]1CC[C@@H]2CN1C(=O)N2OS(=O)(=O)O [Example 66, (2S,5R)—N-{[(2S)-2-Aminopropyl]oxy}-7-oxo-6-(sulfooxy)-1,6-diazabicyclo[3.2.1]octane-2-carboxamide]
IC50 (AmpC): 100 to 1000 nM | IC50 (TEM-1): < 100 nM | IC50 (KPC-2): 1000 to 3000 nM | IC50 (OXA-2; [1]): 1000 to 3000 nM

C[C@@H](N)CONC(=O)[C@@H]1CC[C@@H]2CN1C(=O)N2OS(=O)(=O)O [Example 67, (2S,5R)—N-{[(2R)-2-Aminopropyl]oxy}-7-oxo-6-(sulfooxy)-1,6-diazabicyclo[3.2.1]octane-2-carboxamide]
IC50 (AmpC): 100 to 1000 nM | IC50 (TEM-1): < 100 nM | IC50 (KPC-2): 1000 to 3000 nM | IC50 (OXA-2; [1]): 1000 to 3000 nM

C[C@@H](CN)ONC(=O)[C@@H]1CC[C@@H]2CN1C(=O)N2OS(=O)(=O)O [Example 68, (2S,5R)—N-{[(2S)-1-Aminopropan-2-yl]oxy}-7-oxo-6-(sulfooxy)-1,6-diazabicyclo[3.2.1]octane-2-carboxamide]
IC50 (AmpC): < 100 nM | IC50 (TEM-1): < 100 nM | IC50 (KPC-2): 100 to 1000 nM | IC50 (OXA-2; [1]): 1000 to 3000 nM

NCCCONC(=O)[C@@H]1CC[C@@H]2CN1C(=O)N2OS(=O)(=O)O [Example 69, (2S,5R)—N-(3-Aminopropoxy)-7-oxo-6-(sulfooxy)-1,6-diazabicyclo[3.2.1]octane-2-carboxamide]
IC50 (AmpC): 100 to 1000 nM | IC50 (TEM-1): < 100 nM | IC50 (KPC-2): 1000 to 3000 nM | IC50 (OXA-2; [1]): 100 to 1000 nM

O=C([C@@H]1CC[C@@H]2CN1C(=O)N2OS(=O)(=O)O)N1CCCO1 [Example 70, Sodium (2S,5R)-2-(1,2-oxazolidin-2-ylcarbonyl)-6-(sulfooxy)-1,6-diazabicyclo[3.2.1]octane-7-one]
IC50 (AmpC): 100 to 1000 nM | IC50 (TEM-1): < 100 nM | IC50 (KPC-2): 100 to 1000 nM | IC50 (OXA-2): 100 to 1000 nM

O=C(NOCCN1CCOCC1)[C@@H]1CC[C@@H]2CN1C(=O)N2OS(=O)(=O)O [Example 72, Sodium (2S,5R)—N-[2-(morpholin-4-yl)ethoxy]-7-oxo-6-(sulfooxy)-1,6-diazabicyclo[3.2.1]octane-2-carboxamide]
IC50 (AmpC): < 100 nM | IC50 (TEM-1): < 100 nM | IC50 (KPC-2): 100 to 1000 nM | IC50 (OXA-2): 100 to 1000 nM

O=C(NOCCN1CCCNCC1)[C@@H]1CC[C@@H]2CN1C(=O)N2OS(=O)(=O)O [Example 74, (2S,5R)-7-Oxo-N-[2-(1,4-diazepan-1-yl)ethoxy]-6-(sulfooxy)-1,6-diazabicyclo[3.2.1]octane-2-carboxamide]
IC50 (AmpC): < 100 nM | IC50 (TEM-1): < 100 nM | IC50 (KPC-2): 100 to 1000 nM | IC50 (OXA-2; [1]): 100 to 1000 nM

O=C(NOC[C@@H]1CCN1)[C@@H]1CC[C@@H]2CN1C(=O)N2OS(=O)(=O)O [Example 75, (2S,5R)—N-[(2S)-Azetidin-2-ylmethoxy]-7-oxo-6-(sulfooxy)-1,6-diazabicyclo[3.2.1]octane-2-carboxamide]
IC50 (AmpC): 100 to 1000 nM | IC50 (TEM-1): < 100 nM | IC50 (KPC-2): 100 to 1000 nM | IC50 (OXA-2; [1]): 1000 to 3000 nM

O=C(NOC[C@@H]1CCCN1)[C@@H]1CC[C@@H]2CN1C(=O)N2OS(=O)(=O)O [Example 76, (2S,5R)-7-Oxo-N-[(2S)-pyrrolidin-2-ylmethoxy]-6-(sulfooxy)-1,6-diazabicyclo[3.2.1]octane-2-carboxamide]
IC50 (AmpC): 100 to 1000 nM | IC50 (TEM-1): < 100 nM | IC50 (KPC-2): 100 to 1000 nM | IC50 (OXA-2; [1]): 100 to 1000 nM

O=C(NOC[C@H]1CCCN1)[C@@H]1CC[C@@H]2CN1C(=O)N2OS(=O)(=O)O [Example 77, (2S,5R)-7-Oxo-N-[(2R)-pyrrolidin-2-ylmethoxy]-6-(sulfooxy)-1,6-diazabicyclo[3.2.1]octane-2-carboxamide]
IC50 (AmpC): 100 to 1000 nM | IC50 (TEM-1): < 100 nM | IC50 (KPC-2): 100 to 1000 nM | IC50 (OXA-2; [1]): 100 to 1000 nM

O=C(NOC[C@@H]1CCCCN1)[C@@H]1CC[C@@H]2CN1C(=O)N2OS(=O)(=O)O [Example 78, (2S,5R)-7-Oxo-N-[(2S)-piperidine-2-ylmethoxy]-6-(sulfooxy)-1,6-diazabicyclo[3.2.1]octane-2-carboxamide]
IC50 (AmpC): 100 to 1000 nM | IC50 (TEM-1): < 100 nM | IC50 (KPC-2): 1000 to 3000 nM | IC50 (OXA-2; [1]): 1000 to 3000 nM

O=C(NOC1CNC1)[C@@H]1CC[C@@H]2CN1C(=O)N2OS(=O)(=O)O [Example 79, (2S,5R)—N-(Azetidin-3-yloxy)-7-oxo-6-(sulfooxy)-1,6-diazabicyclo[3.2.1]octane-2-carboxamide]
IC50 (AmpC): 100 to 1000 nM | IC50 (TEM-1): < 100 nM | IC50 (KPC-2): 1000 to 3000 nM | IC50 (OXA-2; [1]): 1000 to 3000 nM

O=C(NO[C@@H]1CCNC1)[C@@H]1CC[C@@H]2CN1C(=O)N2OS(=O)(=O)O [Example 80, (2S,5R)-7-Oxo-N-[(3R)-pyrrolidin-3-yloxy]-6-(sulfooxy)-1,6-diazabicyclo[3.2.1]octane-2-carboxamide]
IC50 (AmpC): 100 to 1000 nM | IC50 (TEM-1): < 100 nM | IC50 (KPC-2): 1000 to 3000 nM | IC50 (OXA-2; [1]): 100 to 1000 nM

O=C(NO[C@H]1CCNC1)[C@@H]1CC[C@@H]2CN1C(=O)N2OS(=O)(=O)O [Example 81, (2S,5R)-7-Oxo-N-[(3S)-pyrrolidin-3-yloxy]-6-(sulfooxy)-1,6-diazabicyclo[3.2.1]octane-2-carboxamide]
IC50 (AmpC): < 100 nM | IC50 (TEM-1): < 100 nM | IC50 (KPC-2): 100 to 1000 nM | IC50 (OXA-2; [1]): 1000 to 3000 nM

O=C(NOCC1CNC1)[C@@H]1CC[C@@H]2CN1C(=O)N2OS(=O)(=O)O [Example 82, (2S,5R)—N-(Azetidin-3-ylmethoxy)-7-oxo-6-(sulfooxy)-1,6-diazabicyclo[3.2.1]octane-2-carboxamide]
IC50 (AmpC): < 100 nM | IC50 (TEM-1): < 100 nM | IC50 (KPC-2): 100 to 1000 nM | IC50 (OXA-2; [1]): 100 to 1000 nM

O=C(NOC[C@@H]1CCCNC1)[C@@H]1CC[C@@H]2CN1C(=O)N2OS(=O)(=O)O [Example 83, (2S,5R)-7-Oxo-N-[(3R)-piperidine-3-ylmethoxy]-6-(sulfooxy)-1,6-diazabicyclo[3.2.1]octane-2-carboxamide]
IC50 (AmpC): < 100 nM | IC50 (TEM-1): < 100 nM | IC50 (KPC-2): 100 to 1000 nM | IC50 (OXA-2; [1]): 100 to 1000 nM

O=C(NOC1CCNCC1)[C@@H]1CC[C@@H]2CN1C(=O)N2OS(=O)(=O)O [Example 84, (2S,5R)-7-Oxo-N-(piperidine-4-yloxy)-6-(sulfooxy)-1,6-diazabicyclo[3.2.1]octane-2-carboxamide]
IC50 (AmpC): < 100 nM | IC50 (TEM-1): < 100 nM | IC50 (KPC-2): 1000 to 3000 nM | IC50 (OXA-2; [1]): 100 to 1000 nM

O=C(NOCC1CCNCC1)[C@@H]1CC[C@@H]2CN1C(=O)N2OS(=O)(=O)O [Example 85, (2S,5R)-7-Oxo-N-(piperidine-4-ylmethoxy)-6-(sulfooxy)-1,6-diazabicyclo[3.2.1]octane-2-carboxamide]
IC50 (AmpC): < 100 nM | IC50 (TEM-1): < 100 nM | IC50 (KPC-2): 100 to 1000 nM | IC50 (OXA-2; [1]): 100 to 1000 nM
